What was measured:
[1] = Cytotoxicity against mouse BV2 cells assessed as cell viability at 20 uM by MTT assay relative to LPS-treated cells; format: cell-based, BV-2; settings: read-out: Activity
BV-2 = test: Antineuroinflammatory activity against mouse BV2 cells assessed as inhibition of LPS-induced nitric oxide production after 24 hrs by Griess method; format: functional, cell-based; settings: BV-2, 24 h

SMILES | IC50 (BV-2) [µM] | viability at 20 µM [1] [%]
O=c1c(O[C@@H]2O[C@H](CO)[C@@H](O)[C@H](O)[C@H]2O)c(-c2ccc(O[C@@H]3O[C@H](CO)[C@@H](O)[C@H](O)[C@H]3O)cc2)oc2cc(O)cc(O)c12 | 170 | 99.1
O=c1c(O)c(-c2ccc(O[C@@H]3O[C@H](CO)[C@@H](O)[C@H](O)[C@H]3O)c(O)c2)oc2cc(O[C@@H]3O[C@H](CO)[C@@H](O)[C@H](O)[C@H]3O)cc(O)c12 | 51.7 | 105
O=c1c(O)c(-c2ccc(O)cc2)oc2cc(O[C@@H]3O[C@H](CO)[C@@H](O)[C@H](O)[C@H]3O)cc(O)c12 | 39.1 | 107
O=C(/C=C/c1ccc(O)cc1)O[C@H]1[C@H](Oc2c(-c3ccc(O[C@@H]4O[C@H](CO)[C@@H](O)[C@H](O)[C@H]4O)cc3)oc3cc(O)cc(O)c3c2=O)O[C@H](CO)[C@@H](O)[C@@H]1O [ALLIVICTOSIDE A] | 55.6 | 109
O=C(/C=C\c1ccc(O)cc1)O[C@H]1[C@H](Oc2c(-c3ccc(O[C@@H]4O[C@H](CO)[C@@H](O)[C@H](O)[C@H]4O)cc3)oc3cc(O[C@@H]4O[C@H](CO)[C@@H](O)[C@H](O)[C@H]4O)cc(O)c3c2=O)O[C@H](CO)[C@@H](O)[C@@H]1O [ALLIVICTOSIDE D] | 48.5 | 100
O=C(/C=C/c1ccc(O)cc1)O[C@@H]1[C@@H](O)[C@H](Oc2c(-c3ccc(O[C@@H]4O[C@H](CO)[C@@H](O)[C@H](O)[C@H]4O)cc3)oc3cc(O[C@@H]4O[C@H](CO)[C@@H](O)[C@H](O)[C@H]4O)cc(O)c3c2=O)O[C@H](CO)[C@H]1O [ALLIVICTOSIDE E] | 49.5 | 104
O=C(/C=C/c1ccc(O)cc1)O[C@H]1[C@H](Oc2c(-c3ccc(O[C@H]4O[C@@H](CO)[C@H](O)[C@@H](O)[C@@H]4O)c(O)c3)oc3cc(O)cc(O)c3c2=O)O[C@H](CO)[C@@H](O)[C@@H]1O [ALLIVICTOSIDE G] | > 200 | 101
O=c1c(O[C@@H]2O[C@H](CO)[C@@H](O)[C@H](O)[C@H]2O)c(-c2ccc(O)cc2)oc2cc(O)cc(O)c12 [ASTRAGALIN] | 77.4 | 106
C[C@@H]1O[C@@H](OC[C@H]2O[C@@H](Oc3c(-c4ccc(O)cc4)oc4cc(O)cc(O)c4c3=O)[C@H](O)[C@@H](O)[C@@H]2O)[C@H](O)[C@H](O)[C@H]1O [NICOTIFLOROSIDE] | 122 | 104

The remaining molecules from weak to strong by IC50 (BV-2), led by results:

IC50 (BV-2) [µM] | SMILES | viability at 20 µM [1] [%]
47.2 | O=C(/C=C/c1ccc(O)cc1)O[C@H]1[C@H](Oc2c(-c3ccc(O)cc3)oc3cc(O[C@@H]4O[C@H](CO)[C@@H](O)[C@H](O)[C@H]4O)cc(O)c3c2=O)O[C@H](CO)[C@@H](O)[C@@H]1O | 105
45.5 | O=c1c(O[C@@H]2O[C@H](CO)[C@@H](O)[C@H](O)[C@H]2O)c(-c2ccc(O[C@@H]3O[C@H](CO)[C@@H](O)[C@H](O)[C@H]3O)c(O)c2)oc2cc(O)cc(O)c12 | 100
44 | O=C(/C=C/c1ccc(O)cc1)O[C@H]1[C@H](Oc2c(-c3ccc(O[C@@H]4O[C@H](CO)[C@@H](O)[C@H](O)[C@H]4O)cc3)oc3cc(O[C@@H]4O[C@H](CO)[C@@H](O)[C@H](O)[C@H]4O)cc(O)c3c2=O)O[C@H](CO)[C@@H](O)[C@@H]1O [ALLIVICTOSIDE C] | 104
43.4 | COc1cc(/C=C/C(=O)O[C@H]2[C@H](Oc3c(-c4ccc(O[C@@H]5O[C@H](CO)[C@@H](O)[C@H](O)[C@H]5O)cc4)oc4cc(O[C@@H]5O[C@H](CO)[C@@H](O)[C@H](O)[C@H]5O)cc(O)c4c3=O)O[C@H](CO)[C@@H](O)[C@@H]2O)ccc1O | 101
33 | O=c1c(O[C@@H]2O[C@H](CO)[C@@H](O)[C@H](O)[C@H]2O)c(-c2ccc(O[C@@H]3O[C@H](CO)[C@@H](O)[C@H](O)[C@H]3O)cc2)oc2cc(O[C@@H]3O[C@H](CO)[C@@H](O)[C@H](O)[C@H]3O)cc(O)c12 | 102
29.9 | COc1cc(/C=C/C(=O)O[C@H]2[C@H](Oc3c(-c4ccc(O[C@H]5O[C@@H](CO)[C@H](O)[C@@H](O)[C@@H]5O)c(O)c4)oc4cc(O[C@@H]5O[C@H](CO)[C@@H](O)[C@H](O)[C@H]5O)cc(O)c4c3=O)O[C@H](CO)[C@@H](O)[C@@H]2O)ccc1O [ALLIVICTOSIDE H] | 105
28.9 | O=c1c(O[C@@H]2O[C@H](CO)[C@@H](O)[C@H](O)[C@H]2O)c(-c2ccc(O)cc2)oc2cc(O[C@@H]3O[C@H](CO)[C@@H](O)[C@H](O)[C@H]3O)cc(O)c12 | 106
21.5 | COc1cc(/C=C/C(=O)O[C@H]2[C@H](Oc3cc(O)c4c(=O)c(O[C@@H]5O[C@H](CO)[C@@H](O)[C@H](O)[C@H]5O)c(-c5ccc(O)cc5)oc4c3)O[C@H](CO)[C@@H](O)[C@@H]2O)ccc1O | 106
20.7 | COc1cc(/C=C/C(=O)O[C@H]2[C@H](Oc3c(-c4ccc(O[C@@H]5O[C@H](CO)[C@@H](O)[C@H](O)[C@H]5O)cc4)oc4cc(O)cc(O)c4c3=O)O[C@H](CO)[C@@H](O)[C@@H]2O)ccc1O [ALLIVICTOSIDE B] | 107
20.4 | COc1cc(/C=C/C(=O)O[C@H]2[C@H](Oc3c(-c4ccc(O)cc4)oc4cc(O[C@@H]5O[C@H](CO)[C@@H](O)[C@H](O)[C@H]5O)cc(O)c4c3=O)O[C@H](CO)[C@@H](O)[C@@H]2O)ccc1O [ALLIVICTOSIDE F] | 100
19.8 | O=c1c(O[C@@H]2O[C@H](CO)[C@@H](O)[C@H](O)[C@H]2O)c(-c2ccc(O)c(O)c2)oc2cc(O)cc(O)c12 [ISOQUERCETIN] | 97.3
16.3 | CNC(=N)NCCC[C@H](N)C(=O)O [TILARGININE] | 98.2
